Here are results for 16 compounds from US10294214B2, “Positive allosteric modulators of human melanocortin-4 receptor” (Vanderbilt University, priority 2016, dated 2019).

Experiment [1] addresses hMC4R (Homo sapiens (Human), UniProt P32245). The experiment is described as follows: LANCE cAMP assay, hMC4R PAM. The experiment is classed as cell-based. Particulars: for hMC4R PAM LANCE pEC50 Mean: HEK293 cells stably expressing the hMC4R, α-MSH at an EC20 dose; for Emax: read-out: % of αMSH maximal response. As to the method: Analysis of pharmacological properties of compounds was performed using the LANCE cAMP kit (Perkin Elmer). HEK293 cells stably expressing the hMC4R were treated with PAM compounds at doses indicated, then incubated with an Alexa Fluor 647-labeled antibody in stimulation buffer according to manufacturer's instructions for 30 min at RT. Next, α-MSH was added (at an EC20 dose or at doses indicated for concentration-response curves), and plates were incubated for 15 minutes at RT, followed by the addition of 10 μL of detection mix. Plates were then incubated for 30 minutes at RT and read on a Viewlux (Perkin Elmer) using 618 and 671 nm emission filters. IBMX was not included in the assay.
For orientation: TR-FRET usually uses a lanthanide donor and a delayed reading to cut background.

For experiment [2], the target named is native L cell MC4R (Mus musculus (Mouse), UniProt P56450). Description: Ussing chamber assay, α-MSH inhibition of VIP-elevated Isc in mouse colon mucosa. The following applies: for α-MSH response (inhibition of Isc) after pretreatment / Effect of antagonist on α-MSH inhibition of Isc potentiated by 1 μM Example 3: α-MSH 300 nM; for Effect of compound alone on basal Isc: basolateral, Example 3 at 200 nM or 1 μM, vs vehicle; for MC4R PAM activity on α-MSH induced, PYY mediated short circuit current inhibition: mouse colonic epithelium; for Effect of antagonist on α-MSH inhibition of Isc potentiated by 1 μM Example 3: HS014 30 nM, 300 nM BIBO3304 plus 1 μM BIIE0246 in combination. As to the method: (§1) FIGS. 2A-2I contain data on the characterization of hMC4R PAMs Examples 1, 2, and 3. FIGS. 2A, 2B, and 2C show structures of Examples 1-3, and the affect of Examples 1-3 on the α-MSH dose-response curve at the hMC4R, as determined using the Lance assay. Insets show the concentration-response effect as a function of the fold shift on the α-MSH concentration response curve. […] After α-MSH responses had waned all tissues received PYY (10 nM) to verify residual Y receptor anti-secretory activity. Basal Isc values are indicated to the left of each trace from an exposed area of 0.14 cm^2. Vertical arrows show the timepoint at which α-MSH Isc responses were recorded. […] Each value is the mean±1 SEM with n values in parentheses. ** P<0.01 using one-way ANOVA with Dunnett's post-test.
(§2) GI tissue from adult (12-20 week old) male C57BL/6J mice were dissected free of overlying smooth muscle and mucosae placed between 2 halves of Ussing chambers exposing an area of 0.14 cm^2. Mucosae were bathed both sides with Krebs-Henseleit (KH) buffer of following composition (in mM: 117 NaCl, 24.8 NaHCO3, 4.7 KCl, 1.2 MgSO4, 1.2 KH2PO4, 2.5 CaCl2 and 11.1 D-glucose) aerated with 95% O2/5% CO2 (pH 7.4) and voltage-clamped at 0 mV as described in detail previously (Cox et al., 2001; Cox and Tough, 2002). MC4R activity in mouse colonic epithelium was then characterized. Mouse mucosae were pretreated with vehicle or PAM compounds, then with secretagogue, VIP (10 nM, basolateral), and once elevated ISC had reached its peak and was declining at a constant rate, α-MSH was added to the basolateral reservoir to determine responses.
(§3) ISC responses in μA are expressed as the mean±SEM per unit area (cm2). Single comparisons (using GraphPad Prism) were performed using Student's unpaired t-test while multiple comparisons utilized 1-way ANOVA with Dunnett's post test and P≤0.05 were considered statistically significant.

For experiment [3], the system named is Y receptor. The experiment is described as follows: Ussing chamber assay, PYY responses in mouse colon mucosa. The following applies: PYY 10 nM; for Effect on PYY responses: Example 3 at 200 nM or 1 μM; for Effect of antagonist on PYY responses: HS014 30 nM, 300 nM BIBO3304 plus 1 μM BIIE0246 in combination. As to the method:
as §1, §2, §3

Chain of hMC4R (P32245 whole entry): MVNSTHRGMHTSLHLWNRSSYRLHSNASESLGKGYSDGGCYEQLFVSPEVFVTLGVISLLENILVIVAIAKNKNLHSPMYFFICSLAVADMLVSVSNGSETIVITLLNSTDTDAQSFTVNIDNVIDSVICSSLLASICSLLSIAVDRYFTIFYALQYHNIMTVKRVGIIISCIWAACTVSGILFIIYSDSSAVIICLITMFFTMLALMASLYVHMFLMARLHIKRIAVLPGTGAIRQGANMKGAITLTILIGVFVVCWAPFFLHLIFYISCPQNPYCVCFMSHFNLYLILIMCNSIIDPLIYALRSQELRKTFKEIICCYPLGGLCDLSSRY
Chain of native L cell MC4R (P56450 whole entry): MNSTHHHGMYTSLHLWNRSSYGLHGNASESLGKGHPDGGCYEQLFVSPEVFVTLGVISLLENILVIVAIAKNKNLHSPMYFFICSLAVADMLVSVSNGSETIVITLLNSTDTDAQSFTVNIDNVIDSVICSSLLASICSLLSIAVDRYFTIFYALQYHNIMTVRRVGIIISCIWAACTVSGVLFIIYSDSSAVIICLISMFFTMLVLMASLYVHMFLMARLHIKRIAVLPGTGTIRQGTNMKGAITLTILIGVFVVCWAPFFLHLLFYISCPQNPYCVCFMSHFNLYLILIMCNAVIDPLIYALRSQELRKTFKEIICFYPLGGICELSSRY

With `O=C(CN1CCC2(CCCC2)CC1)Nc1c(C(=O)C2CC2)[nH]c2ccccc12` [Example 2, N-(2-(cyclopropanecarbonyl)-1H-indol-3-yl)-2-(8-azaspiro[4.5]decan-8-yl)acetamide], the “hMC4R PAM LANCE pEC50 Mean” value in experiment [1] was 6.3. In experiment [1] (in vitro characterisation), the pEC50 (commonly −log10 of the EC50, conventionally taken in molar units) is on record as 6.3 and the Emax was 80%. Besides, in experiment [2] (3 μM pretreatment), the “α-MSH response (inhibition of Isc) after pretreatment” value is “potentiated significantly”. In experiment [2], the “Effect of compound alone on basal Isc” value is reported as “not significantly different to vehicle controls” and the “MC4R PAM activity on α-MSH induced, PYY mediated short circuit current inhibition” value is listed as “exhibited MC4R PAM activity”. Further, in experiment [3], the “Effect on PYY responses” value is “unaffected”.
With `NC(=O)NCc1ccc(CNC(=O)[C@@H](CCCN=C(N)N)NC(=O)C(c2ccccc2)c2ccccc2)cc1` [BIBO3304, reference compound], the “Effect of antagonist on α-MSH inhibition of Isc potentiated by 1 μM Example 3” value in experiment [2] is listed as “abolished”. For the same compound, the “Effect of antagonist on PYY responses” value in experiment [3] is “predictably abolished”.
On to `CC(C)(C)C1CCN(CC(=O)Nc2c(C(=O)C3CC3)[nH]c3ccccc23)CC1` [Example 1, 2-(4-(tert-butyl)piperidin-1-yl)-N-(2-(cyclopropanecarbonyl)-1H-indol-3-yl)acetamide], for which the “hMC4R PAM LANCE pEC50 Mean” value in experiment [1] worked out at 6.2. Moreover, in experiment [1] (in vitro characterisation), the EC50 (commonly the midpoint of the concentration-response curve) is 0.398 µM and the Emax came to 83%. Further, the “α-MSH response (inhibition of Isc) after pretreatment” value in experiment [2] (10 μM pretreatment) was “potentiated significantly”. In addition, in experiment [2], the “Effect of compound alone on basal Isc” value was “not significantly different to vehicle controls” and the “MC4R PAM activity on α-MSH induced, PYY mediated short circuit current inhibition” value is given as “exhibited MC4R PAM activity”. In addition, the “Effect on PYY responses” value in experiment [3] is listed as “unaffected”.
Take `N=C(N)NCCC[C@H](NC(=O)CC1(CC(=O)N2CCN(C3c4ccccc4NC(=O)c4ccccc43)CC2)CCCC1)C(=O)NCCn1c(=O)n(-c2ccccc2)n(-c2ccccc2)c1=O` (stereo partly drawn) [BIIE0246, reference compound]: the “Effect of antagonist on α-MSH inhibition of Isc potentiated by 1 μM Example 3” value in experiment [2] is “abolished”. For the same compound, the “Effect of antagonist on PYY responses” value in experiment [3] was “predictably abolished”.
As to `COC(=O)c1[nH]c2ccccc2c1NC(=O)CN1CCC(c2ccccc2)CC1` [Example 11], the “hMC4R PAM LANCE pEC50 Mean” value in experiment [1] was determined as 6.5.
Same read-out and setting: the value for `COC(=O)c1[nH]c2ccc(Cl)cc2c1NC(=O)CN1CCN(c2ccccc2)CC1` [Example 15] was 6.2; that for `CCOC(=O)c1[nH]c2ncccc2c1NC(=O)CN1CCCC(C)(C)C1` [Example 34] was 5.7.
For `CCOC(=O)c1[nH]c2ccncc2c1NC(=O)CN1CCCC(C)(C)C1` [Example 28], the “hMC4R PAM LANCE pEC50 Mean” value in experiment [1] amounted to 5.8.
With `CC(=O)c1[nH]c2ccccc2c1NC(=O)CN1CCC(C2CCCC2)CC1` [Example 40], the “hMC4R PAM LANCE pEC50 Mean” value in experiment [1] came to 6.5.
Same read-out and setting: the value for `CC(=O)c1[nH]c2ccccc2c1NC(=O)C(C)N1CCC(C2CCCC2)CC1` (stereo not drawn) [Example 70] was 6.4; that for `COC(=O)c1[nH]c2ccccc2c1NC(=O)C(C)N1CCC(Cc2ccccc2)CC1` (stereo not drawn) [Example 30] was 5.9; that for `COC(=O)c1[nH]c2ccccc2c1NC(=O)CN1CCCC2(CCC2)C1` [Example 29] was 5.9.
Still for that read-out and setting: the value for `O=C(CN1CCC(c2ccccc2)CC1)Nc1c(C(=O)C2CC2)[nH]c2ccncc12` [Example 67] was 6.5.
Take `COC(=O)c1[nH]c2ccccc2c1NC(=O)CN1CCC(N2CCc3ccccc32)CC1` [Example 49]: the “hMC4R PAM LANCE pEC50 Mean” value in experiment [1] is on record as 6.2.
On to `O=C(CN1CCC(C2CCCCC2)CC1)Nc1c(C(=O)C2CC2)[nH]c2ccncc12` [Example 62], for which, in experiment [1], the “hMC4R PAM LANCE pEC50 Mean” value worked out at 6.6.
As for `O=C(CN1CCC(c2ccccc2)CC1)Nc1c(C(=O)C2CC2)[nH]c2ccc(N3CCOCC3)cc12` [Example 69], the “hMC4R PAM LANCE pEC50 Mean” value in experiment [1] is on record as 6.3.
